Reference: patent US5240946A, “((2-(amino-3,4-dioxo-1-cyclobuten-1-yl)amino)alkyl)-acid derivatives” (American Home Products Corporation, priority 1992, dated 1993)

Assays:
[1] = system: male Swiss-albino mice (CD-1 strain), NMDA-induced lethality; test: NMDA induced lethality in mice (survival); format: in vivo, mouse; conditions: for ED50: Mus musculus, 0.5 h, mice pretreated 30 min before NMDA 195 mg/kg i.p., observed 30 min; for percent inhibition of lethality: NMDA 195 mg/kg i.p.
Protocol: (§1) The mice were then observed for 30 minutes, noting the latency of onset of generalized myoclonus (uncontrollable hind leg scratching of limbs and/or torso muscle jerking with loss of righting reflex) and death. From the latter, the ED50 for survival is determined. In this standard experimental test procedure, the specific compounds tested and their activity, which representatively establish the activity for all the compounds herein, is presented in the following Table.
(§2) Where the displacement of CPP binding is expressed as a percentage, it is at the μM concentration given at the concentration in the parenthesis. Similarly, where percent inhibition of lethality at dose in parenthesis.

[2] = target: NMDA receptors; test: (3H)CPP binding displacement in rat brain homogenate; conditions: for IC50: (3H)CPP 8 nM, rat brain homogenate, 23° C.
Protocol: It was determined that the compounds of this invention are competitive NMDA antagonists by determining their ability to inhibit binding of 3-(2-carboxypiperazinyl-4-yl)propyl-1-phosphonic acid (CPP), a known competitive NMDA antagonist, at NMDA receptors in rat brain homogenate. In a manner similar to the procedure of Murphy et al., J. Pharmacol. Exp. Therap. 240 (3) 778 (1987), rat brain homogenates from which endogenous glutamate had been removed were incubated with (3H)CPP (8 nM), the compound being tested and then buffer each for 15 minutes at 23° C. to obtain a final volume of 2 milliliters. The amount of radio ligand displaced by the test compound is expressed as a percentile of the radio ligand displaced by NMDA. The inhibitory concentration of test compound that will displace 50% of the labeled CPP is determined from dose-responseevaluations.
as §2

[3] = system: NMDA-induced convulsions in mice; conditions: Lehmann et al. 1987; cited from earlier work
[4] = system: Parkinsonian-like symptoms induced by MPTP in rats; conditions: Turski et al., Nature 1991; cited from earlier work
[5] = system: ischemic brain damage in gerbils; conditions: Boast et al., Brain Research 1988; cited from earlier work
[6] = system: male Swiss-albino mice (CD-1 strain), generalized myoclonus; test: NMDA-induced generalized myoclonus in mice; format: in vivo; conditions: Mus musculus, ip, read-out: ED90 dose for generalized myoclonus
Protocol: as §1

[7] = at dose in parenthesis 5 (in mg/kg)

SMILES | ED50 [1] | IC50 [2] | also measured
CCOC(=O)CNc1c(N)c(=O)c1=O [1(a), N-(2-amino-3,4-dioxo-1-cyclobutenyl)glycine ethyl ester] | > 100 mg/kg | 190 µM | 
Nc1c(NCC(=O)O)c(=O)c1=O [1(b), N-(2-amino-3,4-dioxo-1-cyclobutenyl)glycine] | > 100 mg/kg |  | 
Nc1c(NCCCC(=O)O)c(=O)c1=O [1(c), 4-[(2-amino-3,4-dioxo-1-cyclobutenyl)amino]butanoic acid] | > 100 mg/kg | 10.2 µM | 
CNc1c(NCCC(=O)O)c(=O)c1=O [2(a), N-[2-(methylamino)-3,4-dioxo-1-cyclobutenyl]beta-alanine] | > 100 mg/kg | 19.6 µM | 
O=C(O)CCNc1c(NCc2ccccc2)c(=O)c1=O [2(b), 3-[[3,4-dioxo-2[(phenylmethyl)amino]-1-cyclobutenyl]amino]propanoic acid] | > 100 mg/kg | > 100 µM | 
C=C(C)CN(CC(=O)O)c1c(N)c(=O)c1=O [3(a), N-(2-amino-3,4-dioxo-1-cyclobutenyl)-N-(2-methyl-2-propenyl)glycine] | > 100 mg/kg | 30 µM | 
Nc1c(N(CC(=O)O)Cc2ccccc2)c(=O)c1=O [3(b), N-(2-amino-3,4-dioxo-1-cyclobutenyl)-N-(phenylmethyl)glycine] | > 100 mg/kg |  | displacement of CPP binding ([2]; at 100 μM): 50%
Nc1c(NCP(=O)(O)O)c(=O)c1=O [4(a), [[(2-amino-3,4-dioxo-1-cyclobutenyl)amino]methyl]phosphonic acid] |  | > 10 µM | 
Nc1c(NCCCP(=O)(O)O)c(=O)c1=O [4(b), [3-[(2-amino-3,4-dioxo-1-cyclobuten-1-yl)amino]propyl]phosphonic acid] | > 100 mg/kg | 2.59 µM | 
Nc1c(NCCCCP(=O)(O)O)c(=O)c1=O [4(c), [4-[(2-amino-3,4-dioxo-1-cyclobuten-1-yl)amino]butyl]phosphonic acid] | > 30 mg/kg |  | displacement of CPP binding ([2]; at 10 μM): 68%
CN(CP(=O)(O)O)c1c(N)c(=O)c1=O [6(a), [[(2-amino-3,4-dioxo-1-cyclobuten-1-yl)methylamino]methyl]phosphonic acid] |  | > 10 µM | 
CC1(C)CNc2c(c(=O)c2=O)N(CCP(=O)(O)O)C1 [9(a), [2-(4,4-dimethyl-8,9-dioxo-2,6-diazabicyclo[5.2.0]non-1(7)-en-2-yl)ethyl]phosphonic acid] |  | 0.28 µM | percent inhibition of lethality [1, 7]: 50%
O=c1c2c(c1=O)N(CCCP(=O)(O)O)CCCN2 [9(b), [3-(8,9-dioxo-2,6-diazabicyclo[5.2.0]non-1(7)-en-2-yl)propyl]phosphonic acid] | > 10 mg/kg | > 1 µM | 
O=c1c2c(c1=O)N(C/C=C/P(=O)(O)O)CCCN2 [9(c), [(E)-3-(8,9-dioxo-2,6-diazabicyclo[5.2.0]non-1(7)-en-2-yl)-1-propenyl]phosphonic acid] | > 5 mg/kg | > 10 µM | 
O=C(O)CCN1CCCNc2c1c(=O)c2=O [10(a), 3-(8,9-dioxo-2,6-diazabicyclo[5.2.0]non-1(7)-en-2-yl)propanoic acid] | > 20 mg/kg | 0.34 µM | 
O=c1c2c(c1=O)N(CCc1nnn[nH]1)CCCN2 [11(a), 2-[2-(1H-tetrazol-5-yl)ethyl]-2,6-diazabicyclo[5.2.0]non-1(7)-ene-8,9-dione] | > 5 mg/kg |  | displacement of CPP binding ([2]; at 10 μM): 40%
O=C(O)C1CN(CCCP(=O)(O)O)CCN1 (stereo not shown) [CPP, 4-(3-phosphonopropyl)-2-piperazinecarboxylic acid] |  |  | prevention of NMDA-induced convulsions [3]: NMDA-induced convulsions have been prevented by CPP in mice; prevention of Parkinsonian-like symptoms induced by MPTP [4]: shown to prevent the Parkinsonian-like symptoms induced by MPTP; prevention of ischemic brain damage [5]: shown to prevent ischemic brain damage in gerbils
Nc1c(NCCC(=O)O)c(=O)c1=O [Example 1, N-(2-Amino-3,4-dioxo-1-cyclobuten-1-yl)beta-alanine] | > 100 mg/kg |  | 
Nc1c(NCCn2oc(=O)[nH]c2=O)c(=O)c1=O [Example 2, 2-[2-[(2-Amino-3,4-dioxo-1-cyclobuten-1-yl)amino]ethyl]-1,2,4-oxadiazolidine-3,5-dione] | > 100 mg/kg | 5.2 µM | 
C=CCN(CC(=O)O)c1c(N)c(=O)c1=O [Example 3, N-(2-Amino-3,4-dioxo-1-cyclobuten-1-yl)-N-(2-propenyl)glycine] | > 100 mg/kg | 10.5 µM | 
Nc1c(NCCP(=O)(O)O)c(=O)c1=O [Example 4, [2-[(2-Amino-3,4-dioxo-1-cyclobuten-1-yl)amino]ethyl]phosphonic acid] |  | 0.471 µM | 
Nc1c(NC/C=C/CP(=O)(O)O)c(=O)c1=O [Example 5, [(E)-4-[(2-Amino-3,4-dioxo-1-cyclobuten-1-yl)amino]-2-butenyl]phosphonic acid] | > 30 mg/kg |  | displacement of CPP binding ([2]; at 10 μM): 52%
CN(CCP(=O)(O)O)c1c(N)c(=O)c1=O [Example 6, [2-[(2-Amino-3,4-dioxo-1-cyclobuten-1-yl)methylamino]ethyl]phosphonic acid] |  | 1 µM | percent inhibition of lethality ([1]; at dose in parenthesis 50 (in mg/kg)): 50%
O=c1c2c(c1=O)N(CCP(=O)(O)O)CCN2 [Example 7, [2-(7,8-Dioxo-2,5-diazabicyclo[4.2.0]oct-1(6)-en-2-yl)ethyl]phosphonic acid] | 6.2 mg/kg | 0.092 µM | 
O=c1c2c(c1=O)N(CCP(=O)(O)O)CCCN2 [Example 8, [2-(8,9-Dioxo-2,6-diazabicyclo[5.2.0]non-1(7)-en-2-yl)ethyl]phosphonic acid] | 2.1 mg/kg | 0.03 µM | 
O=c1c2c(c1=O)N(CCP(=O)(O)O)CC(O)CN2 (stereo not shown) [Example 9, [2-(4-hydroxy-8,9-dioxo-2,6-diazabicyclo[5.2.0]non-1(7)-en-2-yl)ethyl]phosphonic acid] | 1.8 mg/kg | 0.019 µM | 
O=C(O)CN1CCCNc2c1c(=O)c2=O [Example 10, 8,9-Dioxo-2,6-diazabicyclo[5.2.0]non-1(7)-ene-2-acetic acid] | > 20 mg/kg | 0.55 µM | 
O=c1c2c(c1=O)N(Cc1nnn[nH]1)CCCN2 [Example 11, 2-[(1H-Tetrazol-5-yl)methyl]-2,6-diazabicyclo[5.2.0]non-1(7)-ene-8,9-dione] | > 10 mg/kg | 0.038 µM | 
O=c1c2c(c1=O)N(CCP(=O)(O)O)CCCCN2 [Example 12, [2-(9,10-Dioxo-2,7-diazabicyclo[6.2.0]dec-1(8)-en-2-yl)ethyl]phosphonic acid] |  | 0.041 µM | percent inhibition of lethality [1, 7]: 80%
CN[C@H](CC(=O)O)C(=O)O [NMDA, N-methyl-D-aspartic acid] |  |  | ED90 [6]: 195 mg/kg
